Measured values: US20260297081A1, “COMPOUNDS AND METHODS OF TREATING CANCERS” (Cullgen Inc., priority 2023, published 2026)
pIC50: −log10 of the molar value.

These compounds were tested on Calu-1 cells (assay: Anti-proliferation (viability) of NSCLC Calu-1 cells, 3 days (Table 7, FIG. 2B)). Conditions: Homo sapiens, 72 h; Calu-1 cells, 3 days, 10-point serial dilution; read-out: GI IC50 in Calu-1.
Type: cell-based
Protocol: To evaluate anti-proliferation activities of heterobifunctional compounds, NSCLC Calu-1 or ER+ breast cancer T47D cells were treated with selected heterobifunctional compounds following a 10-point serial dilution for 3 or 6 days, respectively.
To verify that heterobifunctional compound-mediated degradation is dependent on the binding to CDK4-cyclin D complex, a negative control compound, CPD-143, which is derived from active heterobifunctional compound CPD-10 was designed. CPD-143 bears the same DDB1 ligand and linker as CPD-10 but with a modified warhead to impair the binding of the control compound to CDK4.

Row | SMILES | pIC50
1 | COc1ccc(NC(=O)c2ccc(NC(C)C)nc2N[C@H]2CC[C@H](C(=O)N3CCC(N4CCN(c5ccc(Nc6ncc7c(C)c(C(C)=O)c(=O)n(C8CCCC8)c7n6)nc5)CC4)C3)CC2)nn1 (stereo partly drawn) [CPD-500, 2-((trans-4-(3-(4-(6-((6-acetyl-8-cyclopentyl-5-methyl-7-oxo-7,8-dihydropyrido[2,3-d]pyrimidin-2-yl)amino)pyridin-3-yl)piperazin-1-yl)pyrrolidine-1-carbonyl)cyclohexyl)amino)-6-(isopropylamino)-N-(6-methoxypyridazin-3-yl)nicotinamide] | ≥ 8.00
2 | CC(=O)c1c(C)c2cnc(Nc3ccc(CN4CCN(CC(=O)NC56CC(Nc7nc(NC(C)C)ccc7C(=O)Nc7ccc(N(C)C)nn7)(C5)C6)CC4)cn3)nc2n(C2CCCC2)c1=O [CPD-502, 2-((3-(2-(4-((6-((6-acetyl-8-cyclopentyl-5-methyl-7-oxo-7,8-dihydropyrido[2,3-d]pyrimidin-2-yl)amino)pyridin-3-yl)methyl)piperazin-1-yl)acetamido)bicyclo[1.1.1]pentan-1-yl)amino)-N-(6-(dimethylamino)pyridazin-3-yl)-6-(isopropylamino)nicotinamide] | 7.30 to 8.00
3 | [2H]C([2H])([2H])Nc1ccc(C(=O)Nc2ccc(N(C)C)nn2)c(NC2CC3(C2)CN(CC(=O)N2CCC4(CCN(Cc5ccc(Nc6ncc7c(C)c(C(C)=O)c(=O)n(C8CCCC8)c7n6)nc5)C4)C2)C3)n1 (stereo not drawn) [CPD-507, 2-((2-(2-(7-((6-((6-acetyl-8-cyclopentyl-5-methyl-7-oxo-7,8-dihydropyrido[2,3-d]pyrimidin-2-yl)amino)pyridin-3-yl)methyl)-2,7-diazaspiro[4.4]nonan-2-yl)-2-oxoethyl)-2-azaspiro[3.3]heptan-6-yl)amino)-N-(6-(dimethylamino)pyridazin-3-yl)-6-((methyl-d3)amino)nicotinamide] | ≤ 7.30
4 | CC(=O)c1c(C)c2cnc(Nc3ccc(CN4CC5(CN(CC(=O)N6CC7(CC(Nc8nc(NC(C)C)ccc8C(=O)Nc8ccc(N(C)C)nn8)C7)C6)C5)C4)cn3)nc2n(C2CCCC2)c1=O [CPD-508, 2-((2-(2-(6-((6-((6-acetyl-8-cyclopentyl-5-methyl-7-oxo-7,8-dihydropyrido[2,3-d]pyrimidin-2-yl)amino)pyridin-3-yl)methyl)-2,6-diazaspiro[3.3]heptan-2-yl)acetyl)-2-azaspiro[3.3]heptan-6-yl)amino)-N-(6-(dimethylamino)pyridazin-3-yl)-6-(isopropylamino)nicotinamide] | ≤ 7.30
5 | CC(=O)c1c(C)c2cnc(Nc3ccc(CN4CC5(CN(CC(=O)N6CCC(Nc7nc(NC(C)C)ccc7C(=O)Nc7ccc(N(C)C)nn7)CC6)C5)C4)cn3)nc2n(C2CCCC2)c1=O [CPD-509, 2-((1-(2-(6-((6-((6-acetyl-8-cyclopentyl-5-methyl-7-oxo-7,8-dihydropyrido[2,3-d]pyrimidin-2-yl)amino)pyridin-3-yl)methyl)-2,6-diazaspiro[3.3]heptan-2-yl)acetyl)piperidin-4-yl)amino)-N-(6-(dimethylamino)pyridazin-3-yl)-6-(isopropylamino)nicotinamide] | ≤ 7.30
6 | CC(=O)c1c(C)c2cnc(Nc3ccc(CN4CCN(C5CCN(C(=O)C6CC(Nc7nc(NC(C)C)ccc7C(=O)Nc7ccc(N(C)C)nn7)C6)C5)CC4)cn3)nc2n(C2CCCC2)c1=O (stereo not drawn) [CPD-510, 2-((3-(3-(4-((6-((6-acetyl-8-cyclopentyl-5-methyl-7-oxo-7,8-dihydropyrido[2,3-d]pyrimidin-2-yl)amino)pyridin-3-yl)methyl)piperazin-1-yl)pyrrolidine-1-carbonyl)cyclobutyl)amino)-N-(6-(dimethylamino)pyridazin-3-yl)-6-(isopropylamino)nicotinamide] | ≤ 7.30
